# Experimental data reported in US12371454B2, “Cyclic peptide compound having Kras inhibitory action” (priority 2019, dated 2025).
# Starred links: 1 amine or outer side, 2 acyl side, 3 side chain; linkers in the order of their positions; H or OH if unused. Positions of bridges follow the written chain, without caps; N, C: chain ends. Non-standard residues stand in square brackets, D forms with d. Residues, ends and D or L forms follow the SMILES beside them. *: point of attachment. hPhe(3-Cl-4-CF3) = N[C@@H](CCc1ccc(C(F)(F)F)c(Cl)c1)C(=O)O; hPhe(4-CF3) = N[C@@H](CCc1ccc(C(F)(F)F)cc1)C(=O)O; Phe(4-CF3) = N[C@@H](Cc1ccc(C(F)(F)F)cc1)C(=O)O; NMePhe(3-Cl) = CN[C@@H](Cc1cccc(Cl)c1)C(=O)O; NMePhe(4-Br) = CN[C@@H](Cc1ccc(Br)cc1)C(=O)O; NMePhe(4-Cl) = CN[C@@H](Cc1ccc(Cl)cc1)C(=O)O; NMePhe(4-Me) = CN[C@@H](Cc1ccc(C)cc1)C(=O)O; NMeNle(6-CHF2) = CN[C@@H](CCCCC(F)F)C(=O)O; NMeMet(O2) = CN[C@@H](CCS(C)(=O)=O)C(=O)O; NMedβ3hAla = C[C@H](CC(=O)[*:2])N(C)[*:1]; Phe(3-Cl) = N[C@@H](Cc1cccc(Cl)c1)C(=O)O; NMeGly(cPent) = CN[C@H](C(=O)O)C1CCCC1; Phe(3-I) = N[C@@H](Cc1cccc(I)c1)C(=O)O; NMeCha = CN[C@@H](CC1CCCCC1)C(=O)O; NMeAllylGly = C=CC[C@H](NC)C(=O)O; NMeChg = CN[C@H](C(=O)O)C1CCCCC1; NMeF = CN[C@@H](Cc1ccccc1)C(=O)O; NMeI = CC[C@H](C)[C@H](NC)C(=O)O; N(CH2CH2)2CF2 = FC1(F)CCN(*)CC1; NMeD = CN[C@@H](CC(=O)O)C(=O)O; NMeL = CN[C@@H](CC(C)C)C(=O)O; NMeV = CN[C@H](C(=O)O)C(C)C; d(β3hA) = C[C@@H](N)CC(=O)O; NMeA = CN[C@@H](C)C(=O)O; NMeAib = CNC(C)(C)C(=O)O; Piperidide = C1CCN(*)CC1; Pyrrolidide = C1CCN(*)C1; dNMeA = CN[C@H](C)C(=O)O; Ac5c = NC1(C(=O)O)CCCC1; Aze = O=C(O)[C@@H]1CCN1; Abu = CC[C@H](N)C(=O)O; Sar = CNCC(=O)O
# Target: T1, Kras and SOS1 (biotin-tagged human Kras loaded with GDP, His-tagged human SOS1) (Homo sapiens, UniProt P01116, G12D)
# T1 construct: made in house; host or cells: E. coli (stated for Kras only)
# Test: Protein-protein interaction inhibition between Kras and SOS1 (KrasGl2D-SOS PPI) using AlphaScreen
# Assay type: binding
# Conditions: AlphaScreen; biotin-tagged human Kras loaded with GDP, His-tagged human SOS1; read-out: KRAS G12D-SOS PPI IC50
# How it was run: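 Binding between SOS1 and Kras is detected as bead-proximity luminescence: illuminate Ni-conjugated donors (680 nm), collect 520-620 nm emission from streptavidin-conjugated acceptors; Kras carries biotin and GDP loaded after purification, SOS1 carries a His tag.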
# T1 sequence (P01116 1-188 isoform P01116-2 G12D): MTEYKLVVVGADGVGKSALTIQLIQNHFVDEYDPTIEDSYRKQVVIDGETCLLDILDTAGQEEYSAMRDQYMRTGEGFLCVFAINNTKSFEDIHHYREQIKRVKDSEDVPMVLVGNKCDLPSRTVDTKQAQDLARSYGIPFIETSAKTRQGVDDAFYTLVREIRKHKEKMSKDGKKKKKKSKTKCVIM
row,SMILES,IC50 [nM]
1,CC[C@H](C)[C@@H]1NC(=O)[C@H](C)N(C)C(=O)C[C@@H](C)N(C)C(=O)[C@H](CC(C)C)N(C)C(=O)C(C)(C)N(C)C(=O)[C@@H]2CCCN2C(=O)[C@H](CCc2ccc(C(F)(F)F)c(Cl)c2)NC(=O)CN(C)C(=O)[C@H](CC2CCCCC2)N(C)C(=O)[C@@H]2CCN2C(=O)[C@H](C)N(C)C1=O [Compound 2160] (cyclo([Aze][NMeCha][Sar][hPhe(3-Cl-4-CF3)]P[NMeAib][NMeL][NMedβ3hAla][NMeA]I[NMeA])),3.8
2,CC[C@H](C)[C@@H]1NC(=O)[C@H](CC(C)C)N(C)C(=O)C[C@@H](C(=O)N2CCCCC2)N(C)C(=O)[C@H](CCS(C)(=O)=O)N(C)C(=O)C2(CCCC2)NC(=O)[C@@H]2CCCN2C(=O)[C@H](CCc2ccc(C(F)(F)F)c(Cl)c2)NC(=O)CN(C)C(=O)[C@H](CC2CCCCC2)N(C)C(=O)CN(C)C(=O)CN(C)C1=O [Compound 162] ([NMeL]I[Sar][Sar][NMeCha][Sar][hPhe(3-Cl-4-CF3)]P[Ac5c][NMeMet(O2)][NMeD]-Piperidide; lactam N-11),230
3,C=CC[C@H]1C(=O)NC2(CCCC2)C(=O)N(C)[C@@H](C2CCCCC2)C(=O)N(C)[C@H](C(=O)N2CCCCC2)CC(=O)N(C)[C@@H](CC(C)C)C(=O)N[C@@H]([C@@H](C)CC)C(=O)N(C)CC(=O)N(C)CC(=O)N(C)[C@@H](CC2CCCCC2)C(=O)N(C)CC(=O)N[C@@H](CCc2ccc(C(F)(F)F)c(Cl)c2)C(=O)N1C [Compound 1449] ([NMeL]I[Sar][Sar][NMeCha][Sar][hPhe(3-Cl-4-CF3)][NMeAllylGly][Ac5c][NMeChg][NMeD]-Piperidide; lactam N-11),14
4,CC[C@H](C)[C@@H]1NC(=O)[C@H](CC(C)C)N(C)C(=O)C[C@@H](C)NC(=O)[C@H](CC(C)C)N(C)C(=O)C2(CCCC2)NC(=O)[C@@H]2CCCN2C(=O)[C@H](CCc2ccc(C(F)(F)F)cc2)NC(=O)CN(C)C(=O)[C@H](Cc2ccc(Cl)cc2)N(C)C(=O)CN(C)C(=O)CN(C)C1=O [Compound 258] (cyclo([Ac5c][NMeL][d(β3hA)][NMeL]I[Sar][Sar][NMePhe(4-Cl)][Sar][hPhe(4-CF3)]P)),36
5,CC[C@H](C)[C@@H]1NC(=O)[C@H](CC(C)C)N(C)C(=O)C[C@@H](C)NC(=O)[C@H](C2CCCCC2)N(C)C(=O)C2(CCCC2)NC(=O)[C@@H]2CCCN2C(=O)[C@H](CCc2ccc(C(F)(F)F)c(Cl)c2)NC(=O)CN(C)C(=O)[C@H](CC2CCCCC2)N(C)C(=O)CN(C)C(=O)CN(C)C1=O [Compound 593] (cyclo([Ac5c][NMeChg][d(β3hA)][NMeL]I[Sar][Sar][NMeCha][Sar][hPhe(3-Cl-4-CF3)]P)),34
6,CC[C@@H]1NC(=O)[C@H](CC(=O)N2CCC(F)(F)CC2)N(C)C(=O)[C@H](CCc2ccc(C(F)(F)F)c(Cl)c2)NC(=O)CN(C)C(=O)[C@H](CC2CCCCC2)N(C)C(=O)CN(C)C(=O)CN(C)C(=O)[C@H]([C@@H](C)CC)NC(=O)[C@H](CC(C)C)N(C)C(=O)C[C@@H](C(=O)N2CCCCC2)N(C)C(=O)[C@H](C(C)C)N(C)C1=O [Compound 240] ([NMeL]I[Sar][Sar][NMeCha][Sar][hPhe(3-Cl-4-CF3)][NMeD](N(CH2CH2)2CF2)[Abu][NMeV][NMeD]-Piperidide; lactam N-11),140
7,CC[C@H](C)[C@@H]1NC(=O)[C@H](C)N(C)C(=O)C[C@@H](C)NC(=O)[C@H](C2CCCC2)N(C)C(=O)C2(CCCC2)NC(=O)[C@@H]2CCCN2C(=O)[C@H](CCc2ccc(C(F)(F)F)c(Cl)c2)NC(=O)CN(C)C(=O)[C@H](Cc2cccc(Cl)c2)N(C)C(=O)[C@@H]2CCCN2C(=O)CN(C)C1=O [Compound 186] (cyclo([Ac5c][NMeGly(cPent)][d(β3hA)][NMeA]I[Sar]P[NMePhe(3-Cl)][Sar][hPhe(3-Cl-4-CF3)]P)),48
8,CC[C@H](C)[C@@H]1NC(=O)[C@H](C)N(C)C(=O)C[C@@H](C(=O)N(C)C)N(C)C(=O)[C@H]([C@@H](C)CC)N(C)C(=O)C2(CCCC2)NC(=O)[C@H](Cc2ccc(Br)cc2)N(C)C(=O)[C@H](CCc2ccc(C(F)(F)F)c(Cl)c2)NC(=O)CN(C)C(=O)[C@H](Cc2ccc(C)cc2)N(C)C(=O)[C@@H]2CCN2C(=O)[C@H](C)N(C)C1=O [Compound 1893] ([NMeA]I[NMeA][Aze][NMePhe(4-Me)][Sar][hPhe(3-Cl-4-CF3)][NMePhe(4-Br)][Ac5c][NMeI][NMeD]-NMe2; lactam N-11),14
9,CC[C@H](C)[C@@H]1NC(=O)[C@H](CC(C)C)N(C)C(=O)C[C@@H](C)NC(=O)[C@H](C(C)C)N(C)C(=O)C2(CCCC2)NC(=O)[C@@H]2CCCN2C(=O)[C@H](CCc2ccc(C(F)(F)F)c(Cl)c2)NC(=O)CN(C)C(=O)[C@H](CC2CCCCC2)N(C)C(=O)[C@@H]2CCN2C(=O)[C@@H]2CCCN2C1=O [Compound 1082] (cyclo([Ac5c][NMeV][d(β3hA)][NMeL]IP[Aze][NMeCha][Sar][hPhe(3-Cl-4-CF3)]P)),270
10,CC[C@H](C)[C@@H]1NC(=O)[C@H](CC(C)C)N(C)C(=O)C[C@@H](C)N(C)C(=O)[C@H](CC(C)C)NC(=O)C(C)(C)N(C)C(=O)[C@H](CC(C)C)NC(=O)[C@H](CCc2ccc(C(F)(F)F)c(Cl)c2)NC(=O)[C@@H](C)N(C)C(=O)[C@H](CC2CCCCC2)N(C)C(=O)[C@@H]2CCN2C(=O)CN(C)C1=O [Compound 1400] (cyclo([Aze][NMeCha][dNMeA][hPhe(3-Cl-4-CF3)]L[NMeAib]L[NMedβ3hAla][NMeL]I[Sar])),210
11,CC[C@H](C)[C@@H]1NC(=O)[C@H](CC(C)C)N(C)C(=O)C[C@@H](C(=O)N2CCCCC2)N(C)C(=O)[C@H](CC(C)C)NC(=O)C(C)(C)N(C)C(=O)[C@H](Cc2ccc(C(F)(F)F)cc2)NC(=O)[C@H](Cc2cccc(I)c2)NC(=O)CN(C)C(=O)[C@H](CC2CCCCC2)N(C)C(=O)CN(C)C(=O)CN(C)C1=O [Compound 336] ([NMeL]I[Sar][Sar][NMeCha][Sar][Phe(3-I)][Phe(4-CF3)][NMeAib]L[NMeD]-Piperidide; lactam N-11),93
12,CC[C@H](C)[C@@H]1NC(=O)[C@H](CC(C)C)N(C)C(=O)C[C@@H](C(=O)N2CCCCC2)N(C)C(=O)[C@H](CCCCC(F)F)N(C)C(=O)C2(CCCC2)NC(=O)[C@@H]2CCCN2C(=O)[C@H](CCc2ccc(C(F)(F)F)c(Cl)c2)NC(=O)CN(C)C(=O)[C@H](CC2CCCCC2)N(C)C(=O)CN(C)C(=O)CN(C)C1=O [Compound 653] ([NMeL]I[Sar][Sar][NMeCha][Sar][hPhe(3-Cl-4-CF3)]P[Ac5c][NMeNle(6-CHF2)][NMeD]-Piperidide; lactam N-11),44
13,CC[C@H](C)[C@@H]1NC(=O)[C@H](C)N(C)C(=O)C[C@@H](C(=O)N2CCCC2)NC(=O)[C@H](CC(C)C)N(C)C(=O)[C@H](Cc2ccccc2)N(C)C(=O)[C@H](CC(C)C)NC(=O)[C@H](Cc2cccc(Cl)c2)NC(=O)CN(C)C(=O)[C@H](Cc2ccc(Cl)cc2)N(C)C(=O)CN(C)C(=O)CN(C)C1=O [Compound 758] ([NMeA]I[Sar][Sar][NMePhe(4-Cl)][Sar][Phe(3-Cl)]L[NMeF][NMeL]D-Pyrrolidide; lactam N-11),140
14,CC[C@H](C)[C@@H]1NC(=O)[C@H](C)N(C)C(=O)C[C@@H](C)NC(=O)[C@H](C(C)C)N(C)C(=O)C2(CCCC2)NC(=O)[C@@H]2CCCN2C(=O)[C@H](CCc2ccc(C(F)(F)F)c(Cl)c2)NC(=O)[C@@H](C)N(C)C(=O)[C@H](Cc2ccccc2)N(C)C(=O)CN(C)C(=O)CN(C)C1=O [Compound 1691] (cyclo([Ac5c][NMeV][d(β3hA)][NMeA]I[Sar][Sar][NMeF][dNMeA][hPhe(3-Cl-4-CF3)]P)),120
